The experiment deals with CT26 syngenic subcutaneous colon cancer model. Nature of the experiment: Antitumor activity of MBS8 micelles in combination with doxorubicin or doxil in the CT26 model. The experiment is classed as in vivo, mice. Particulars: mono chemotherapy 4 mg/kg i.v. q4d x3. As for the experimental part:
Randomisation of mice and treatment started when tumors reached an average volume of 100 mm^3 (Day 0). […] All drugs were administered by intravenous bolus. Doxorubicin or doxil were given q4d, total of 3 injections. […] Growth of tumors was measured twice a week.

This passage reports complete responders results from patent US20240197759A1, “IMMUNE STIMULATING NANOPARTICLE COMPOSITION” (DANMARKS TEKNISKE UNIVERSITET, priority 2021, published 2024).

As for `COc1cccc2c1C(=O)c1c(O)c3c(c(O)c1C2=O)C[C@@](O)(C(=O)CO)C[C@@H]3O[C@H]1C[C@H](N)[C@H](O)[C@H](C)O1` [doxorubicin], the complete responders result is “no complete responders”.
